The text below walks through data of ChEMBL document CHEMBL1201862, “PubChem BioAssay data set” (2004).

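Interpolation was linear, between the two tested concentrations surrounding the appropriate level; five concentrations were tested over 48 hours in 96-well plates. GI50 marks 50% less growth.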 Activity calls are given as the source filed them. No stated cut-off is given here; in the data, active = GI50 up to about 1.1 µM and inactive = higher.

Common to all, as to experiment: NCI tumour cell line growth inhibition, 48 h
The test system of experiment [1] is UACC-62.
Experiment [2] has as its system HCC 2998.
The test system of experiment [3] is COLO 205.
Experiment [4] relates to SK-OV-3.
In experiment [5] the test system is UO-31.
Experiment [6] has as its system PC-3.
The test system of experiment [7] is MDA-MB-231.
The test system of experiment [8] is Hs-578T.
Experiment [9] has as its system MDA-N.
The subject of experiment [10] is NCI-H226.
For experiment [11], the system named is TK-10.
For experiment [12], the system named is M14.
Experiment [13] deals with SW-620.
Experiment [14] relates to SNB-19.
For experiment [15], the system named is HCT-15.
For experiment [16], the system named is RPMI-8226.
The subject of experiment [17] is IGROV-1.
Experiment [18] relates to Malme-3M.
Experiment [19] relates to SR.

Consider `O=C(O)/C=C/C(=O)Nc1nc[nH]n1`, for which the GI50 in [1], in [2], in [3], in experiment [4], in experiment [5] and in [6] was > 100 µM (inactive) each time. For the same molecule, the GI50 in [7], in experiment [8], in experiment [9], in experiment [10], in [11] and in [12] was > 100 µM (inactive) in each case. Besides, the GI50 in [13] is > 100 µM (inactive); in [14], > 100 µM (inactive); in experiment [15], over 100 µM; in experiment [16], > 100 µM (inactive); in [17] it was > 100 µM (inactive).

For `C/C=C(\C)C(=O)O[C@@H]1CC(C)(C)CC2C3=CCC4[C@]56CC[C@](O)(OC5)C(C)(C)C6CC[C@@]4(C)C3(C)CC[C@]21C(=O)O` (some centres not stated), the GI50 is > 100 µM (inactive) in experiment [1]; > 100 µM (inactive) in experiment [2]; 83.9 µM (inactive) in [3]; > 100 µM (inactive) in experiment [4]; 39.3 µM (inactive) in experiment [6]; > 100 µM (inactive) in experiment [7]. Further, the GI50 in experiment [18], in experiment [8], in experiment [9], in [10], in [11] and in [12] was > 100 µM (inactive) each time. Further, the GI50 in experiment [13] was > 100 µM (inactive); in [14], > 100 µM (inactive); in [15], 83.4 µM; in experiment [16], 87.9 µM (inactive); in experiment [17], 54.3 µM (inactive).

Regarding `CCCCOC(=O)C(=O)C(CC(C(=O)Cc1ccccc1)c1ccccc1)C(=O)C=C(C)C` (configuration not stated), the GI50 in experiment [1], in experiment [2], in experiment [3], in experiment [4], in [5] and in experiment [6] was > 100 µM (inactive) each time. The GI50 in experiment [7], in experiment [8], in experiment [9], in [10], in experiment [11] and in experiment [12] was > 100 µM (inactive) each time. Besides, the GI50 in experiment [13] was > 100 µM (inactive); in experiment [14], > 100 µM (inactive); in [15], over 100 µM; in [17], > 100 µM (inactive).

For `CCOP(=O)(OCC)C1(O)CC(n2cc(C)c(=O)[nH]c2=O)OC1CO` (configuration not stated), the GI50 in [1], in experiment [2], in experiment [3], in [4], in experiment [5] and in experiment [6] was > 100 µM (inactive) each time. The GI50 in experiment [18], in experiment [8], in experiment [9], in [10], in experiment [19] and in experiment [11] was > 100 µM (inactive) throughout. Also, the GI50 in experiment [12] was > 100 µM (inactive); in experiment [13] it was > 100 µM (inactive); in [14] it was > 100 µM (inactive); in experiment [15] it was over 100 µM; in experiment [16], > 100 µM (inactive); in [17] it was > 100 µM (inactive).

With `COc1ccc(NC(=O)C(=O)C(CC2C(=O)NC(=S)NC2=O)C(=O)c2ccc3ccccc3c2)c([N+](=O)[O-])c1` (configuration not stated), the GI50 in experiment [1], in [2], in [3], in [4], in [5] and in experiment [6] was > 100 µM (inactive) throughout. The GI50 in experiment [7], in [8], in experiment [9], in experiment [10], in experiment [11] and in [12] was > 100 µM (inactive) each time. Also, the GI50 in experiment [13] is > 100 µM (inactive); in [14] it was > 100 µM (inactive); in [15], over 100 µM; in experiment [16], 76.9 µM (inactive); in experiment [17], > 100 µM (inactive).

Consider `COc1ccc(Nc2[nH]c(C(C)=O)c(N)c2C(=S)Nc2ccccc2)cc1`, for which the GI50 in experiment [1] is 25.9 µM (inactive); in experiment [2], 28.2 µM (inactive); in experiment [3], 21.9 µM (inactive); in experiment [4], > 100 µM (inactive); in experiment [5], 51.6 µM (inactive); in experiment [7], 52 µM (inactive). The GI50 in experiment [18] is 50.6 µM (inactive); in experiment [8], 74 µM (inactive); in experiment [9] it was 76.4 µM (inactive); in experiment [10] it was 36.1 µM (inactive); in [19], 33.7 µM (inactive); in [11] it was 68.9 µM (inactive). For the same molecule, the GI50 in [12] was 26.8 µM (inactive); in experiment [13] it was > 100 µM (inactive); in [14], 82.8 µM (inactive); in [15] it was 35.6 µM; in [17] it was 78.2 µM (inactive).

For `CC1(C)C(OC(=O)c2ccccc2)C[C@]23CCC[C@](C)(C[C@@H](O)C12)C3` (some centres not stated), the GI50 in experiment [1] is 15.2 µM (inactive); in experiment [3], 17.5 µM (inactive); in [4], 85.7 µM (inactive); in experiment [5], 18.8 µM (inactive); in experiment [6], 11.5 µM (inactive); in experiment [18] it was 19.2 µM (inactive). Besides, the GI50 in experiment [8] was 19 µM (inactive); in experiment [9], 18.9 µM (inactive); in experiment [10], 18.8 µM (inactive); in experiment [19], 9.91 µM (inactive); in experiment [11], 29.5 µM (inactive); in experiment [12], 19.9 µM (inactive). Moreover, the GI50 is 13.9 µM (inactive) in experiment [13]; 23.6 µM (inactive) in [14]; 18.4 µM in experiment [15]; 23.9 µM (inactive) in experiment [16]; 20.2 µM (inactive) in [17].

Turning to `Nc1ccc(-c2nc3ccccc3s2)cc1C(F)(F)F`, the GI50 is 16.9 µM (inactive) in [1]; 18.1 µM (inactive) in experiment [3]; 16.6 µM (inactive) in experiment [4]; 14.7 µM (inactive) in [5]; 15.7 µM (inactive) in experiment [6]; 13.2 µM (inactive) in experiment [7]. The GI50 in experiment [18] is 15.8 µM (inactive); in [8], 20 µM (inactive); in [9], 13.6 µM (inactive); in experiment [11], 13.1 µM (inactive); in [12] it was 14.9 µM (inactive); in [13], 16.4 µM (inactive). In addition, the GI50 was 17.4 µM (inactive) in experiment [14], 13.4 µM in [15] and 16.5 µM (inactive) in [16].

For `O=C(NCCCCCCNC(=O)c1cccc2ccccc12)Nc1cccc2ccccc12`, the GI50 in [1] was > 100 µM (inactive); in [2] it was > 100 µM (inactive); in [3], > 100 µM (inactive); in [5] it was 45.7 µM (inactive); in experiment [6], > 100 µM (inactive); in experiment [7] it was > 100 µM (inactive). Further, the GI50 in experiment [18], in experiment [8], in [9], in experiment [11], in experiment [12] and in [13] was > 100 µM (inactive) each time. Besides, the GI50 in experiment [14] was > 100 µM (inactive); in [15], over 100 µM; in [16], > 100 µM (inactive); in experiment [17] it was > 100 µM (inactive).

For the molecule `CCCCc1ccc(Nc2nc(Cl)c3[nH]cnc3n2)cc1`, the GI50 in experiment [1] is 16.4 µM (inactive); in [2] it was 25.5 µM (inactive); in experiment [3], 24.2 µM (inactive); in [4], 34.3 µM (inactive); in [5], 23.8 µM (inactive); in experiment [7], 16.6 µM (inactive). Besides, the GI50 was 19.3 µM (inactive) in [18]; 24.5 µM (inactive) in experiment [8]; 21.9 µM (inactive) in experiment [9]; 39.6 µM (inactive) in [10]; 47.8 µM (inactive) in experiment [19]; 22.8 µM (inactive) in [11]. The GI50 in experiment [12] was 20.9 µM (inactive); in experiment [13] it was 19.2 µM (inactive); in experiment [14] it was 19.1 µM (inactive); in [15], 18 µM; in [16], 33.2 µM (inactive); in experiment [17] it was 25.6 µM (inactive).

For `O=C1C(OC(=O)c2ccccc2)=C(c2ccc(O)cc2)C(=O)C(OC(=O)c2ccccc2)=C1c1ccc(O)cc1`, the GI50 is 44.7 µM (inactive) in experiment [1]; 40.3 µM (inactive) in [2]; > 100 µM (inactive) in [3]; 56.2 µM (inactive) in experiment [4]; > 100 µM (inactive) in experiment [5]; > 100 µM (inactive) in experiment [6]. Also, the GI50 in experiment [7], in experiment [18], in [8], in experiment [9], in [10] and in experiment [11] was > 100 µM (inactive) in each case. The GI50 in [12] is > 100 µM (inactive); in [13] it was > 100 µM (inactive); in experiment [14], 46 µM (inactive); in [15] it was over 100 µM; in experiment [16] it was > 100 µM (inactive); in experiment [17], > 100 µM (inactive).

For `COc1ccccc1/C=C1/Sc2scc(CC(=O)Nc3ccccc3)[n+]2C1=O`, the GI50 was 14.4 µM (inactive) in experiment [1]; 30.8 µM (inactive) in experiment [2]; 20.4 µM (inactive) in [3]; 27.5 µM (inactive) in experiment [4]; 17.9 µM (inactive) in [5]; 26 µM (inactive) in [6]. Moreover, the GI50 in experiment [7] is 23 µM (inactive); in [8], 40.6 µM (inactive); in experiment [9], 20.2 µM (inactive); in [10], 20.3 µM (inactive); in experiment [11] it was 25.2 µM (inactive); in experiment [12] it was 28.4 µM (inactive). The GI50 in [13] is 35 µM (inactive); in experiment [14], 29.1 µM (inactive); in experiment [15], 26.6 µM; in [17], 38 µM (inactive).
